From US7205332B2, “Deoxoartemisinin analogs, process for their preparation, and anticancer agent comprising them” (Industry-Academic Cooperation Foundation, Yonsei University, priority 2003, dated 2007) come the findings set out here.

In data set [1] the test system is P388: mouse fibroblast leukemia cell. Put plainly: micro-culture tetrazolium assay, in vitro cytotoxicity on P388. The class given is cell-based. The note with it: for anticancer activity, fold higher than that of mitomycin: versus mitomycin.
Data set [2] relates to Bewo: human choriocarcinoma cell. As to the kind of experiment: micro-culture tetrazolium assay, in vitro cytotoxicity on Bewo. It counts as cell-based. The note with it: for IC50: read-out: In vitro cytotoxicities (IC50) Bewo.
In the next data set the test system is EL4: mouse thymoma cell. Put plainly: micro-culture tetrazolium assay, in vitro cytotoxicity on EL4. It counts as cell-based. Particulars: for IC50: read-out: In vitro cytotoxicities (IC50) EL4.
Data set [3] deals with HT-29: human colorectal adenocarcinoma cell. As to the kind of experiment: micro-culture tetrazolium assay, in vitro cytotoxicity on HT-29. The class given is cell-based. The note with it: for IC50: read-out: In vitro cytotoxicities (IC50) HT-29. How it is done: (§1) The anticancer activities of the deoxoartemisinin dimer and trimer of the present invention were measured by a known micro-culture tetrazolium assay (see Carmichel, J.; DeGraff, W. G; Gazdar, A. F.; Minna, J. D.; Mitchell, J. B., Evaluation of a Tetrazolium-based Semiautomated Colorimetric Assay: Assessment of Chemosensitivity testing, Cancer Res., 1987, 47, 936–42).

In data set [4] the test system is MCF7: human breast carcinoma cell. As to the kind of experiment: micro-culture tetrazolium assay, in vitro cytotoxicity on MCF7. It counts as cell-based.
Data set [5] relates to SKOV3: human ovarian carcinoma cell. Put plainly: micro-culture tetrazolium assay, in vitro cytotoxicity on SKOV3. It counts as cell-based. Particulars: SK-OV-3, read-out: In vitro cytotoxicities (IC50) SKOV3. The protocol: as §1
The nature of a further data set: water solubility. The class given is physicochemical.
In data set [6] the test system is PANC-1: human pancreatic cancer cell. As to the kind of experiment: micro-culture tetrazolium assay, in vitro cytotoxicity on PANC-1. Particulars: for IC50: PANC-1 human pancreatic cancer cell, read-out: In vitro cytotoxicities (IC50) PANC-1. The class given is cell-based. How it is done: as §1
Data set [7] concerns A549: human lung cancer cell. As to the kind of experiment: micro-culture tetrazolium assay, in vitro cytotoxicity on A549. It counts as cell-based.
[8] abbreviates: P388 mouse fibroblast leukemia cell.
Where [9] appears, read: Bewo human choriocarcinoma cell.
[10] abbreviates: MCF7 human breast carcinoma cell.
Where [11] appears, read: P388 mouse fibroblast leukemia cell, read-out: In vitro cytotoxicities (IC50) P388.
The mark [12] stands for this setting: MCF7 human breast carcinoma cell, read-out: In vitro cytotoxicities (IC50) MCF7.

Values after ≈ are worked out from the molar mass of the structure shown. Where two headings read alike, the source gives them in different places.

With “12-(4′-aminobutyl)deoxoartemisinin dimer [Compound (IVc′)]”, in data set [1] (setting [8]), the “In vitro cytotoxicities (IC50) P388” value is greater than 20 µg/mL. For the same compound, in data set [2] (setting [9]), the “In vitro cytotoxicities (IC50) Bewo” value was greater than 20 µg/mL. Further, in the data set on EL4: mouse thymoma cell (EL4 mouse thymoma cell), the “In vitro cytotoxicities (IC50) EL4” value is greater than 20 µg/mL. Besides, the “In vitro cytotoxicities (IC50) HT-29” value in data set [3] was 20.20 µg/mL. Moreover, the “In vitro cytotoxicities (IC50) MCF7” value in data set [4] (setting [10]) was greater than 20 µg/mL.
For orientation: IC50 means the midpoint of a concentration-inhibition curve. Regarding `COc1cccc2c1C(=O)c1c(O)c3c(c(O)c1C2=O)C[C@@](O)(C(=O)CO)C[C@@H]3O[C@H]1C[C@H](N)[C@H](O)[C@H](C)O1` [Adriamycin, reference compound], the IC50 worked out at 0.39 µg/mL (≈ 0.718 µM) in [1] (setting [11]); 6.24 µg/mL (≈ 11.5 µM) in data set [2] (setting [9]); 0.67 µg/mL (≈ 1.23 µM) with EL4: mouse thymoma cell (EL4 mouse thymoma cell); 0.1 µg/mL (≈ 0.184 µM) in data set [3]; 0.12 µg/mL (≈ 0.221 µM) in data set [4] (setting [12]).
With `C[C@H]1[C@@H](CCSCC[C@H]2O[C@@H]3O[C@@]4(C)CC[C@H]5[C@H](C)CC[C@@H]([C@H]2C)[C@@]35OO4)O[C@@H]2O[C@@]3(C)CC[C@H]4[C@H](C)CC[C@@H]1[C@@]24OO3` [Compound (IVa1), 12-(2′-ethylsulfide)deoxoartemisinin dimer], in data set [1] (P388), the “anticancer activity, fold higher than that of mitomycin” value is recorded as “at least 4 fold”. In addition, the IC50 in data set [1] (setting [11]) came to 0.4 µg/mL (≈ 0.642 µM); in data set [2] (setting [9]), 14.2 µg/mL (≈ 22.8 µM); in the data set with EL4: mouse thymoma cell (EL4 mouse thymoma cell) it was 0.23 µg/mL (≈ 0.369 µM); in data set [3] it was 0.24 µg/mL (≈ 0.385 µM); in [4] (setting [12]), 0.017 µg/mL (≈ 0.0273 µM).
`CC1CCC2C(C)C(CCS(=O)(=O)CCC3OC4OC5(C)CCC6C(C)CCC(C3C)C46OO5)OC3OC4(C)CCC1C32OO4` (centres unmarked) [Compound (IVa2), 12-(2′-sulfonylethyl)deoxoartemisinin dimer]: the “In vitro cytotoxicities (IC50) P388” value in data set [1] (setting [8]) was 5.60 µg/mL. Also, the “In vitro cytotoxicities (IC50) Bewo” value in data set [2] (setting [9]) was found to be 1.04 µg/mL. Further, in data set [2] (Bewo, versus taxol and adriamycin), the “anticancer activity, fold higher than that of taxol and adriamycin” value is “at least 6 fold”. For the same compound, the “In vitro cytotoxicities (IC50) EL4” value in the data set with EL4: mouse thymoma cell (EL4 mouse thymoma cell) turned out to be 0.54 µg/mL. Further, the “In vitro cytotoxicities (IC50) HT-29” value in data set [3] worked out at 0.38 µg/mL. Moreover, in [4] (setting [10]), the “In vitro cytotoxicities (IC50) MCF7” value came out at 0.025 µg/mL.
Consider `C[C@H]1[C@@H](CCNC(=O)CC[C@H]2O[C@@H]3O[C@@]4(C)CC[C@H]5[C@H](C)CC[C@@H]([C@H]2C)[C@@]35OO4)O[C@@H]2O[C@@]3(C)CC[C@H]4[C@H](C)CC[C@@H]1[C@@]24OO3` [Compound (IVc), 12-(2′-amidethyl)deoxoartemisinin Dimer], for which the IC50 in data set [1] (setting [11]) turned out to be 10.4 µg/mL (≈ 16.4 µM); in [5], 12.6 µg/mL (≈ 19.9 µM); in data set [2] (setting [9]) it was 7.5 µg/mL (≈ 11.8 µM); in the data set with EL4: mouse thymoma cell (EL4 mouse thymoma cell) it was 6.29 µg/mL (≈ 9.92 µM); in data set [3], 0.69 µg/mL (≈ 1.09 µM); in data set [4] (setting [12]), 0.005 µg/mL (≈ 0.00789 µM). Also, the “anticancer activity, fold higher than that of adriamycin” value in data set [4] (MCF7, versus adriamycin) is recorded as “at least 24 fold”. In addition, in data set [4] (MCF7, versus mitomycin), the “anticancer activity, fold higher than that of mitomycin” value is “at least 200 fold”.
For orientation: solubility means the dissolved amount per volume that the medium holds. A high value points to a readily soluble substance. With `C[C@H]1[C@@H](CCNC(=O)CC[C@H](N)C(=O)NCC[C@H]2O[C@@H]3O[C@@]4(C)CC[C@H]5[C@H](C)CC[C@@H]([C@H]2C)[C@@]35OO4)O[C@@H]2O[C@@]3(C)CC[C@H]4[C@H](C)CC[C@@H]1[C@@]24OO3` [Compound (IVd), 12-[2′-(N-glutamic)-α,β-amide]deoxoartemisinin dimer], the IC50 in data set [1] (setting [11]) is 15.6 µg/mL (≈ 21.3 µM); in data set [2] (setting [9]), greater than 20 µg/mL; in the data set with EL4: mouse thymoma cell (EL4 mouse thymoma cell), 16.5 µg/mL (≈ 22.5 µM); in [3], 6.5 µg/mL (≈ 8.86 µM); in [4] (setting [12]), 15.3 µg/mL (≈ 20.8 µM). In the data set “water solubility” (compared with artemisinin), the “water solubility relative to artemisinin” value is “five times more water soluble”. This compound yielded a solubility in “water solubility” (water) of 5210 µg/mL (≈ 7100 µM).
What is called melting point is the temperature of the solid-liquid transition. Regarding `C[C@H]1[C@@H](CCNC(=O)CC[C@H](NC(=O)CC[C@H]2O[C@@H]3O[C@]4(C)CC[C@H]5[C@H](C)CC[C@@H]([C@H]2C)[C@@]35OO4)C(=O)NCC[C@H]2O[C@@H]3O[C@]4(C)CC[C@H]5[C@H](C)CC[C@@H]([C@H]2C)[C@@]35OO4)O[C@@H]2O[C@]3(C)CC[C@H]4[C@H](C)CC[C@@H]1[C@@]24OO3` [Compound (IVe), deoxoartemisinin trimer], the melting point was 138 °C. Besides, in data set [1] (P388, versus adriamycin), the “anticancer activity, fold higher than that of adriamycin” value is listed as “at least 3 fold”. Besides, the “anticancer activity, fold higher than that of mitomycin” value in [1] (P388) is listed as “at least 12 fold”. Besides, the “anticancer activity, fold higher than that of taxol” value in data set [1] (P388, versus taxol) is recorded as “at least 20 fold”. For the same compound, in data set [1] (setting [11]), the IC50 worked out at 0.12 µg/mL (≈ 0.114 µM). Further, the IC50 in data set [5] was determined as 11.2 µg/mL (≈ 10.6 µM). Also, the IC50 in data set [2] (setting [9]) is 18.3 µg/mL (≈ 17.3 µM). Moreover, the IC50 in [6] was 2.69 µg/mL (≈ 2.55 µM). In [6] (human pancreatic cancer cell, versus taxol), the “anticancer activity, fold higher than that of taxol” value was “at least 2 fold”. The IC50 in the data set with EL4: mouse thymoma cell (EL4 mouse thymoma cell) came to 1.07 µg/mL (≈ 1.01 µM). Moreover, in [3], the IC50 came to 0.09 µg/mL (≈ 0.0852 µM). The IC50 in data set [4] (setting [12]) turned out to be 0.017 µg/mL (≈ 0.0161 µM). Also, in data set [7] (A549 human lung cancer cell, read-out: In vitro cytotoxicities (IC50) A549), the IC50 worked out at 2.45 µg/mL (≈ 2.32 µM).
Turning to `CO[C@@]12[C@H](COC(N)=O)C3=C(C(=O)C(C)=C(N)C3=O)N1C[C@@H]1N[C@@H]12` [Mitomycin, reference compound], the IC50 in data set [1] (Mus musculus, P388, read-out: In vitro cytotoxicities (IC50) P388) was determined as 1.5 µg/mL (≈ 4.49 µM); in data set [2] (Homo sapiens, BeWo) it was 0.85 µg/mL (≈ 2.54 µM); in the data set on EL4: mouse thymoma cell (Mus musculus), 3.94 µg/mL (≈ 11.8 µM); in data set [3], 0.02 µg/mL (≈ 0.0598 µM); in data set [4] (Homo sapiens, MCF7, read-out: In vitro cytotoxicities (IC50) MCF7), 0.93 µg/mL (≈ 2.78 µM); in data set [7] (Homo sapiens, A549, read-out: In vitro cytotoxicities (IC50) A549) it was 1.85 µg/mL (≈ 5.53 µM).
On to `CC(=O)O[C@H]1C(=O)[C@@]2(C)[C@H]([C@H](OC(=O)c3ccccc3)[C@]3(O)C[C@H](OC(=O)[C@H](O)[C@@H](NC(=O)c4ccccc4)c4ccccc4)C(C)=C1C3(C)C)[C@]1(OC(C)=O)CO[C@@H]1C[C@@H]2O` [Taxol, reference compound], for which the IC50 came to 2.27 µg/mL (≈ 2.66 µM) in data set [1] (setting [11]); 12.3 µg/mL (≈ 14.4 µM) in data set [5]; 7.39 µg/mL (≈ 8.65 µM) in data set [2] (setting [9]); 5.76 µg/mL (≈ 6.75 µM) in data set [6]; 1.34 µg/mL (≈ 1.57 µM) in the data set on EL4: mouse thymoma cell (EL4 mouse thymoma cell); 0.01 µg/mL (≈ 0.0117 µM) in data set [3].
